What all share (test): NCI-60 cell line screen, 48 h
Assay [1] concerns LXFL 529.
The subject of assay [2] is M19-MEL.
Assay [3] has as its system RXF 631.
Assay [4] relates to HOP-18.
Assay [5] relates to DLD-1.
The test system of assay [6] is 786-0.
Assay [7] concerns MCF7.
Assay [8] relates to MDA-MB-435.
In assay [9] the test system is T47D.

Structures are written as SMILES.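 48-hour exposure; five concentrations; linearly interpolated endpoints. Here, GI50 denotes the concentration required for 50% inhibition of growth.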 Active and inactive are the calls of the source. Rule as the data show it: active = GI50 up to about 1.1 µM and inactive = higher.

Take `O=C(O)C1CCC(=O)N1C(=O)COc1cc(Cl)c(Cl)cc1Cl` (stereo unspecified): the GI50 in [1], in assay [2] and in assay [3] was > 100 µM (inactive) throughout.

With `CCOC(=O)C(C(=O)OCC)c1cc(-c2cc3ccccc3o2)oc(=O)c1C#N`, the GI50 in assay [4] is 16 µM (inactive); in [1] it was 20.4 µM (inactive).

On to `N#Cc1ccccc1NC(=O)C(=O)C(C(=O)c1ccccc1F)C1OC(=O)c2ccccc21` (stereo unspecified), for which the GI50 in assay [5] was 46.8 µM (inactive); in assay [1], 31 µM (inactive); in assay [2], 29.7 µM (inactive).

Consider `CC(=O)O[C@H]1CC[C@@]2(C)C(=CC[C@@H]3[C@@H]2CC[C@]2(C)C(=O)/C(=C\c4ccccc4)C[C@@H]32)C1`, for which the GI50 in [6], in assay [7], in assay [8] and in assay [9] was > 100 µM (inactive) throughout.

For `O=C(NC(Cc1ccc(I)cc1)C(=O)O)c1ccc(Br)cc1` (stereo unspecified), the GI50 is > 100 µM (inactive) in [5], > 100 µM (inactive) in assay [4], > 82.2 µM (inactive) in [2] and > 60.4 µM (inactive) in assay [7].

As to `Clc1ccccc1/C=C/c1cscn1`, the GI50 in [5], in assay [1] and in [2] was > 100 µM (inactive) throughout.

For `Cc1cccc(C(O)c2cccnc2)c1O` (stereo unspecified), the GI50 in assay [7], in assay [8] and in [9] was > 100 µM (inactive) in each case.

As to `CC(C)=CCC(OC(=O)C=C(C)C)c1cc(O)c2c(c1O)C(=O)C=CC2=O` (stereo unspecified), the GI50 in assay [5] was 0.279 µM (active); in [4], 3.52 µM (inactive); in assay [2], 0.621 µM (active).

For the compound `O=C(c1ccccc1)C1C(c2ccccc2)N1S(=O)(=O)c1ccccc1` (stereo unspecified), the GI50 in assay [7], in [8] and in assay [9] was > 100 µM (inactive) in each case.

Turning to `Nc1nnc2ccc(Cl)cc2[n+]1[O-]`, the results for the GI50 in [7], in assay [8] and in assay [9] were 70.1 µM (inactive), 57 µM (inactive) and 44.9 µM (inactive), respectively.

Consider `Clc1nc2c(N3CCCC3)nc(N3CCNCC3)nc2[nH]1`, for which the GI50 in assay [6] was 17.8 µM (inactive); in assay [7], 17.7 µM (inactive); in assay [8], 18.7 µM (inactive); in assay [9] it was 16.9 µM (inactive).

For the compound `O=c1c(-c2ccccc2)c(SCCN2CCCCCC2)n(-c2ccccc2)c(=S)n1-c1ccccc1`, the GI50 in [7] is 24.9 µM (inactive); in assay [8] it was 33 µM (inactive).

As for `CC1=CC[C@H](C)C(C)(C)C1/C=C/C(C)=C/CC[C@@]1(CO)[C@H](CCCO)/C(=C(/C)C=O)CC[C@]1(C)O` (stereo partly specified), the GI50 in [5] was 3.53 µM (inactive); in assay [4], 15.5 µM (inactive); in [1], 7.62 µM (inactive); in assay [2], 17.2 µM (inactive).

`COc1cc(/N=N\c2ccc(OC)c(S(=O)(=O)O)c2)c(C)cc1/N=N\c1ccc(/C=C/c2ccc(/N=[N+](/[O-])c3ccc(/C=C/c4ccc(/N=N/c5cc(C)c(/N=N\c6ccc(OC)c(S(=O)(=O)O)c6)cc5OC)cc4S(=O)(=O)O)c(S(=O)(=O)O)c3)cc2S(=O)(=O)O)c(S(=O)(=O)O)c1`: the GI50 in assay [5], in assay [4], in assay [2] and in [7] was > 100 µM (inactive) throughout.

As to `Cc1ccc(C(=O)Nc2ccc(S(=O)(=O)O)c3cc(S(=O)(=O)O)cc(S(=O)(=O)O)c23)cc1N`, the GI50 in assay [6], in assay [7] and in assay [9] was > 100 µM (inactive) in each case.

Turning to `Cc1ccc(NC(=O)S(N)(c2ccc(C)cc2)[N+](=O)[O-])cc1` (stereo unspecified), the figures for the GI50 in assay [7], in assay [8] and in assay [9] were > 100 µM (inactive), > 100 µM (inactive) and 38 µM (inactive), respectively.

The values above are taken from ChEMBL document CHEMBL1201862, “PubChem BioAssay data set” (2004).
